From patent publication US20250002463A1, “NEW SALT FORMS OF AMILORIDE AND ITS DERIVATIVES FOR PHARMACEUTICAL USE” (PSOMRI Holding AB, priority 2021, published 2025)

How the values were obtained:
[1] = Polymorphism: solid forms found in salt screen by HT-XRPD; format: physicochemical; conditions: DME, THF; for Polymorphism: Example 1 salt screen in MeOH; for salt polymorphs found from all three crystallization solvents: Example 2, MeOH
Description: (§1) The precipitated solids were analyzed by high throughput X-ray powder diffractometry (HT XRPD). Liquid phases (both solutions and mother liquors) were evaporated at ambient conditions and the residual solids were analyzed by HT XRPD.
The salt screen experiments were carried out in methanol (MeOH), 1,2-dimethoxyethane (DME) and tetrahydrofuran (THF).

[2] = Physical stability under Accelerated Aging Conditions (AAC, 40° C./75% RH, 2 days), HT-XRPD; conditions: for Physically stable after AAC: Example 1; for Physically stable after AAC / physical stability upon exposure to AAC: 40° C./75% RH for 2 days; for Physical Stability: AAC 40° C./75% RH, 2 days, re-analyzed by HT-XRPD; for physical stability upon exposure to AAC: Example 2
[3] = Crystallinity of salt forms by HT-XRPD; format: physicochemical; conditions: salt screen solid forms
Description: as §1
XRPD patterns were obtained using the Ardena T2 high-throughput XRPD set-up. The plates were mounted on a Bruker General Area Detector Diffraction System (GADDS) equipped with a VÅNTEC-500 gas area detector corrected for intensity and geometric variations. The calibration of the measurement accuracy (peaks position) was performed using NIST SRM1976 standard (Corundum).
No background subtraction or curve smoothing was applied to the XRPD patterns.

| SMILES | Polymorphism [1] | Physically stable after AAC [2] | salt polymorphs found from all three crystallization solvents [1] | Physical Stability [2] | physical stability upon exposure to AAC [2] | Crystallinity [3] | Physically stable after AAC ([2]; listed as TAR1 pc) |
| --- | --- | --- | --- | --- | --- | --- | --- |
| NC(=NC(=O)c1nc(Cl)c(N)nc1N)NCc1ccccc1.O=C(O)c1ccccc1 [BNZ3] | Yes | physically stable and Yes | – | – | – | – | – |
| NC(=NC(=O)c1nc(Cl)c(N)nc1N)NCc1ccccc1.O=C(O)c1cccnc1 [NIC1] | – | – | only one salt polymorph | Stable | physically stable | Good | – |
| NC(=NC(=O)c1nc(Cl)c(N)nc1N)NCc1ccccc1.O=C(O)c1cc(=O)[nH]c(=O)[nH]1 [ORO3] | – | – | – | Poor- | – | Poor | – |
| NC(=NC(=O)c1nc(Cl)c(N)nc1N)NCc1ccccc1.NC(=NC(=O)c1nc(Cl)c(N)nc1N)NCc1ccccc1.O=S(=O)(O)O [SUL1] | Yes | physically stable and Yes | – | – | – | – | – |
| NC(=NC(=O)c1nc(Cl)c(N)nc1N)NCc1ccccc1.O=C(O)c1cc2ccccc2c(Cc2c(O)c(C(=O)O)cc3ccccc23)c1O [PAM2] | – | – | – | Stable | physically stable | Poor | – |
| N=C(NCc1ccccc1)NC(=O)c1nc(Cl)c(N)nc1N.O=S(=O)(O)c1ccc2ccccc2c1 [NSA1] | – | – | – | Unstable | – | Good | – |
| NC(=NCc1ccccc1)NC(=O)c1nc(Cl)c(N)nc1N.O=C(O)C=CC(=O)O [FUM1] | – | – | – | Unstable | – | Good | – |
| NC(=NC(=O)c1nc(Cl)c(N)nc1N)NCc1ccccc1.O=C(O)c1ccccc1O [SAL1] | – | – | – | Stable | physically stable | Good | – |
| NC(=NCc1ccccc1)NC(=O)c1nc(Cl)c(N)nc1N.O=C(O)c1cc(=O)[nH]c(=O)[nH]1 [ORO2] | – | – | – | Stable | physically stable | Good - poorly | – |
| CC(C)(C)C(=O)O.NC(=NC(=O)c1nc(Cl)c(N)nc1N)NCc1ccccc1 [PIV1] | – | – | only one salt polymorph | Stable | physically stable | Good | – |
| NC(=NC(=O)c1nc(Cl)c(N)nc1N)NCc1ccccc1.O=S(=O)(O)c1cccc2c(S(=O)(=O)O)cccc12 [NDS1] | – | – | only one salt polymorph | Stable | physically stable | Good | – |
| NC(=NC(=O)c1nc(Cl)c(N)nc1N)NCc1ccccc1.O=C(O)c1cc(O)ccc1O [GEN1] | – | – | – | Stable | physically stable | Moderate | – |
| NC(=NC(=O)c1nc(Cl)c(N)nc1N)NCc1ccccc1.NC(=NC(=O)c1nc(Cl)c(N)nc1N)NCc1ccccc1.O=S(=O)(O)CCS(=O)(=O)O [EDY4] | – | – | – | Unstable | – | Good | – |
| NC(=NC(=O)c1nc(Cl)c(N)nc1N)NCc1ccccc1.O=S(=O)(O)c1ccc2ccccc2c1 [NSA2] | – | – | – | Stable | physically stable | Moderate | – |
| NC(=NC(=O)c1nc(Cl)c(N)nc1N)NCc1ccccc1.O=C(O)C=CC(=O)O [MAE3] | – | – | – | Stable | physically stable | Moderate | – |
| NC(=NC(=O)c1nc(Cl)c(N)nc1N)NCc1ccccc1.O=CO [FOR2] | – | – | – | Unstable | – | Moderate/Poor | – |
| NC(=NC(=O)c1nc(Cl)c(N)nc1N)NCc1ccccc1.O=S(=O)(O)CCS(=O)(=O)O [EDY1] | – | – | – | Unstable | – | Good | – |
| NC(=NC(=O)c1nc(Cl)c(N)nc1N)NCc1ccccc1.O=C(O)c1ccccc1O [SAL3] | – | – | – | Unstable- | – | Moderate | – |
| NC(=NC(=O)c1nc(Cl)c(N)nc1N)NCc1ccccc1.O=C(O)C=Cc1ccccc1 [CIN1] | – | – | – | Stable | physically stable | Moderate | – |
| NC(=NC(=O)c1nc(Cl)c(N)nc1N)NCc1ccccc1.O=C(O)C[C@H](O)C(=O)O [MAL1] | – | – | – | Stable | physically stable | Good | – |
| N=C(NCc1ccccc1)NC(=O)c1nc(Cl)c(N)nc1N.O=C(O)C(O)C(O)C(=O)O [TAR1] | Unclear | physically stable | – | – | – | – | Yes |
| NC(=NC(=O)c1nc(Cl)c(N)nc1N)NCc1ccccc1.O=C(O)CC(O)(CC(=O)O)C(=O)O [CIT1] | – | – | – | Unstable | – | Moderate/Poor | – |
| N=C(NCc1ccccc1)NC(=O)c1nc(Cl)c(N)nc1N.O=S(=O)(O)c1ccccc1 [BES2] | – | – | – | Unstable | – | Good | – |
| NC(=NC(=O)c1nc(Cl)c(N)nc1N)NCc1ccccc1.O=C(O)CNC(=O)c1ccccc1 [HIP1] | – | – | – | Unstable | – | Good | – |
| CC(=O)O.NC(=NC(=O)c1nc(Cl)c(N)nc1N)NCc1ccccc1 [ACA2] | Yes | physically stable and Yes | – | – | – | – | – |
| Cl.N/C(=N\C(=O)c1nc(Cl)c(N)nc1N)NCc1ccccc1 [Benzamil HCl SM1, reference compound] | Yes | No | – | – | – | – | – |
| CCC(=O)O.NC(=NC(=O)c1nc(Cl)c(N)nc1N)NCc1ccccc1 [PRO3] | – | – | – | Unstable | – | Moderate | – |
| CCC(=O)O.NC(=NC(=O)c1nc(Cl)c(N)nc1N)NCc1ccccc1 [PRO4] | – | – | – | Unstable | – | Obtained as mixture | – |
| Br.Br.NC(=NC(=O)c1nc(Cl)c(N)nc1N)NCc1ccccc1 [HBR3] | – | – | – | Unstable | – | Moderate | – |
| NC(=NC(=O)c1nc(Cl)c(N)nc1N)NCc1ccccc1.O=C(O)C=Cc1ccccc1 [CIN2] | – | – | – | Stable | physically stable | Good | – |
